{"source": "ChEMBL document CHEMBL1811856", "about": "(J Med Chem, 2011)", "key": {"[1]": {"species": "Sus scrofa", "assay": "Selectivity ratio Ki for dopamine D2 like receptor in porcine striatal membranes to Ki for dopamine D1 like receptor in porcine striatal membranes", "format": "cell membranes"}, "[2]": {"assay": "Displacement of [3H]spiperone from dopamine D2 like receptor in porcine striatal membranes after 30 mins by scintillation counting", "format": "cell membranes, Sus scrofa, Striatum, Membrane"}, "[3]": {"assay": "Displacement of [3H]SCH-23390 from dopamine D1 like receptor in porcine striatal membranes after 30 mins by scintillation counting", "format": "cell membranes, Sus scrofa, Striatum, Membrane"}}}
{"smiles": "C[C@H]1Cc2cc(O)c(O)cc2[C@H]2c3ccccc3CN[C@@H]21", "note": "(racemic)", "values": [{"measurement": "Ratio Ki", "setting": "[1]", "result": 1.3}, {"measurement": "Ki", "setting": "[2]", "result": 8.67, "unit": "µM"}, {"measurement": "Ki", "setting": "[3]", "result": 6.54, "unit": "µM"}]}
{"smiles": "Oc1cc2c(cc1O)[C@H]1c3ccccc3CN[C@@H]1CC2", "note": "(racemic) [DIHYDREXIDINE]", "values": [{"measurement": "Ki", "setting": "[2]", "result": 0.24, "unit": "µM"}]}
{"smiles": "C[C@@H]1C[C@H]2NCc3ccccc3[C@@H]2c2cc(O)c(O)cc21", "note": "(racemic)", "values": [{"measurement": "Ratio Ki", "setting": "[1]", "result": 20}, {"measurement": "Ki", "setting": "[2]", "result": 5.53, "unit": "µM"}, {"measurement": "Ki", "setting": "[3]", "result": 0.27, "unit": "µM"}]}
{"smiles": "C[C@H]1C[C@H]2NCc3ccccc3[C@@H]2c2cc(O)c(O)cc21", "note": "(racemic)", "values": [{"measurement": "Ratio Ki", "setting": "[1]", "result": 3.9}, {"measurement": "Ki", "setting": "[2]", "result": 3.63, "unit": "µM"}, {"measurement": "Ki", "setting": "[3]", "result": 0.92, "unit": "µM"}]}
{"smiles": "C[C@@H]1Cc2cc(O)c(O)cc2[C@H]2c3ccccc3CN[C@@H]21", "values": [{"measurement": "Ratio Ki", "setting": "[1]", "result": "< 0.74"}, {"measurement": "Ki", "setting": "[2]", "result": 7.38, "unit": "µM"}, {"measurement": "Ki", "setting": "[3]", "result": "> 10", "unit": "µM"}]}
